From patent US8536209B2, “Aminotriazole derivatives as ALX agonists” (Actelion Pharmaceuticals Ltd., priority 2007, dated 2013)

Molecular target: T1, recombinant human ALX receptor (Homo sapiens, UniProt P25090)
T1 construct: expressed in transfected cells; host or cells: HEK293 (HEK293-hALXR-Gα16)
T1 sequence (P25090 1-351): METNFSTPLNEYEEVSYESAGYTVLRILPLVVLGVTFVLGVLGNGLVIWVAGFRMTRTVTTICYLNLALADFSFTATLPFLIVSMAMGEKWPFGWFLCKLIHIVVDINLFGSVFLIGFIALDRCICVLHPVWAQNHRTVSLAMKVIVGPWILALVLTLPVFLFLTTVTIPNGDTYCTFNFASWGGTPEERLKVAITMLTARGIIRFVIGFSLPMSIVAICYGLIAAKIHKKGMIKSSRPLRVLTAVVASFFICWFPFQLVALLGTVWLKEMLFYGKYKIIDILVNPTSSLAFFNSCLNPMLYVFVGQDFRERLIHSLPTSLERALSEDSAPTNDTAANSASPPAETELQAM
Assay: Intracellular calcium measurements (FLIPR), ALX receptor agonistic activity
Assay type: cell-based
Conditions: HEK293-hALXR-Gα16 cells, normalized to WKYMVm 10 nM
Experimental: The ALX receptor agonistic activity of the compounds of formula (I) is determined in accordance with the following experimental method.
Intracellular Calcium Measurements:
Cells expressing recombinant human ALX receptor and the G-protein Gα16 (HEK293-hALXR-Gα16) were grown to 80% confluency in Growing Medium (GM). Cells were detached from culture dishes with a cell dissociation buffer (Invitrogen, 13151-014), and collected by centrifugation at 1,000 rpm at RT for 5 min in Assay Buffer (AB) (equal parts of Hank's BSS (Gibco, 14065-049) and DMEM without Phemol Red (Gibco, 11880-028)). After 60 min incubation at 37° C. under 5% CO2 in AB supplemented with 1 μM Fluo-4 (AM) (TEFLABS.COM, 0152), 0.04% (v/v) Pluronic F-127 (Molecular Probes, P6866), and 20 mM HEPES (Gibco, 15630-056), the cells were washed and resuspended in AB. They were then seeded onto 384-well FLIPR assay plates (Greiner, 781091) at 50′000 cells in 70 μl per well and sedimented by centrifugation at 1′000 rpm for 1 min. Stock solutions of test compounds were made up at a concentration of 10 mM in DMSO, and serially diluted in AB to concentrations required for activation dose response curves. WKYMVm (Phoenix Peptides) was used as a reference agonist. A FLIPR^384 instrument (Molecular Devices) was operated according to the manufacturer's standard instructions, adding 4 μl of test compound dissolved at 10 mM in DMSO and diluted prior to the experiment in assay buffer to obtain the desired final concentration. Changes in fluorescence were monitored before and after the addition of test compounds at lex=488 nm and lem=540 nm. Emission peak values above base level after compounds addition were exported after base line subtraction. Values were normalized to high-level control (WKYMVm compound, 10 nM final concentration) after subtraction of the base line value (AB addition). The program XLlfit 3.0 (IDBS) was used to fit the data to a single site dose response curve of the equation (A+((B−A)/(1+((C/x)^D)))) and to calculate the EC50 values.

Question: With `CC(=O)c1ccc(Cn2ncc(NC(=O)c3ncoc3-c3ccccc3)n2)o1` [Example 1, 5-Phenyl-oxazole-4-carboxylic acid [2-(5-acetyl-furan-2-ylmethyl)-2H-[1,2,3]triazol-4-yl]-amide] as the molecule, how does the EC50 read?
Answer: 1.8 nM

Question: Which EC50 does the source give for `CC(=O)CCCCn1ncc(NC(=O)c2ncoc2-c2ccccc2)n1` [Example 5, 5-Phenyl-oxazole-4-carboxylic acid [2-(5-oxo-hexyl)-2H-[1,2,3]triazol-4-yl]-amide] here?
Answer: 1.6 nM

Question: With `CC(=O)c1ccc(Cn2ncc(NC(=O)/C=C/c3cccc(OC(F)(F)F)c3)n2)o1` [Example 8, (E)-N-[2-(5-Acetyl-furan-2-ylmethyl)-2H-[1,2,3]triazol-4-yl]-3-(3-trifluoromethoxy-phenyl)-acrylamide] as the molecule, how does the EC50 read?
Answer: 1.2 nM

Question: How did the EC50 turn out when `COc1cc(-c2ocnc2C(=O)Nc2cnn(Cc3ccc(C(C)=O)o3)n2)ccc1C` [Example 21, 5-(3-Methoxy-4-methyl-phenyl)-oxazole-4-carboxylic acid [2-(5-acetyl-furan-2-ylmethyl)-2H-[1,2,3]triazol-4-yl]-amide] was run?
Answer: 53 nM

Question: Which EC50 does the source give for `CC(=O)c1ccc(Cn2ncc(NC(=O)c3nc(C)oc3-c3cccc(C(F)(F)F)c3)n2)o1` [Example 26, 2-Methyl-5-(3-trifluoromethyl-phenyl)-oxazole-4-carboxylic acid [2-(5-acetyl-furan-2-ylmethyl)-2H-[1,2,3]triazol-4-yl]-amide] here?
Answer: 2 nM

Question: With `CC(=O)c1ccc(Cn2ncc(NC(=O)c3nc(C4CC4)oc3-c3ccccc3)n2)o1` [Example 30, 2-Cyclopropyl-5-phenyl-oxazole-4-carboxylic acid [2-(5-acetyl-furan-2-ylmethyl)-2H-[1,2,3]triazol-4-yl]-amide] as the molecule, how does the EC50 read?
Answer: 0.8 nM

Question: For `CC(=O)c1ccc(Cn2ncc(NC(=O)c3ncoc3-c3ccccc3)n2)s1` [Example 33, 5-Phenyl-oxazole-4-carboxylic acid [2-(5-acetyl-thiophen-2-ylmethyl)-2H-[1,2,3]triazol-4-yl]-amide], which EC50 is on record?
Answer: 2.8 nM

Question: `CC(=O)c1cccc(Cn2ncc(NC(=O)OCc3ccccc3Cl)n2)c1` [Example 35, [2-(3-Acetyl-benzyl)-2H-[1,2,3]triazol-4-yl]-carbamic acid 2-chloro-benzyl ester] was tested. Which EC50 did it give?
Answer: 8.5 nM

Question: How did the EC50 turn out when `CC(F)(F)CCCCn1ncc(NC(=O)c2ncoc2-c2ccccc2)n1` [Example 36, 5-Phenyl-oxazole-4-carboxylic acid [2-(5,5-difluoro-hexyl)-2H-[1,2,3]triazol-4-yl]-amide] was run?
Answer: 4.9 nM

Question: `CS(=O)(=O)c1ccc(Cn2ncc(NC(=O)c3ncoc3-c3ccccc3)n2)o1` [Example 37, 5-Phenyl-oxazole-4-carboxylic acid [2-(5-methanesulfonyl-furan-2-ylmethyl)-2H-[1,2,3]triazol-4-yl]-amide] was tested. Which EC50 did it give?
Answer: 24 nM

Question: How did the EC50 turn out when `CC(=O)c1ccc(Cn2ncc(NC(=O)c3ncoc3-c3cccc(N(C)C)c3)n2)o1` [Example 38, 5-(3-Dimethylamino-phenyl)-oxazole-4-carboxylic acid [2-(5-acetyl-furan-2-ylmethyl)-2H-[1,2,3]triazol-4-yl]-amide] was run?
Answer: 1.9 nM

Question: Which EC50 does the source give for `CC(=O)c1csc(Cn2ncc(NC(=O)OCc3ccccc3Cl)n2)n1` [Example 40, [2-(4-Acetyl-thiazol-2-ylmethyl)-2H-[1,2,3]triazol-4-yl]-carbamic acid 2-chloro-benzyl ester] here?
Answer: 1.3 nM

Question: For `CC(=O)c1ccnc(Cn2ncc(NC(=O)OCc3ccccc3Cl)n2)c1` [Example 41, [2-(4-Acetyl-pyridin-2-ylmethyl)-2H-[1,2,3]triazol-4-yl]-carbamic acid 2-chloro-benzyl ester], which EC50 is on record?
Answer: 21 nM

Question: For `COCCc1cccc(-c2ocnc2C(=O)Nc2cnn(Cc3ccc(C(C)=O)o3)n2)c1` [Example 42, 5-[3-(2-Methoxy-ethyl)-phenyl]-oxazole-4-carboxylic acid [2-(5-acetyl-furan-2-ylmethyl)-2H-[1,2,3]triazol-4-yl]-amide], which EC50 is on record?
Answer: 2.1 nM

Question: Which EC50 does the source give for `CC(=O)c1cccc(Cn2ncc(NC(=O)c3ncoc3-c3ccccc3)n2)n1` [Example 43, 5-Phenyl-oxazole-4-carboxylic acid [2-(6-acetyl-pyridin-2-ylmethyl)-2H-[1,2,3]triazol-4-yl]-amide] here?
Answer: 203 nM

Question: Which EC50 does the source give for `CC(=O)c1cc(Cn2ncc(NC(=O)c3ncoc3-c3ccccc3)n2)cs1` [Example 49, 5-Phenyl-oxazole-4-carboxylic acid [2-(5-acetyl-thiophen-3-ylmethyl)-2H-[1,2,3]triazol-4-yl]-amide] here?
Answer: 57 nM

Question: Which EC50 does the source give for `CC(=O)c1ccc(Cn2ncc(NC(=O)c3nc(C)sc3-c3cccc(C)c3)n2)o1` [Example 50, 2-Methyl-5-m-tolyl-thiazole-4-carboxylic acid [2-(5-acetyl-furan-2-ylmethyl)-2H-[1,2,3]triazol-4-yl]-amide] here?
Answer: 98 nM

Question: `CC(=O)c1cnc(Cn2ncc(NC(=O)OCc3ccccc3Cl)n2)s1` [Example 71, [2-(5-Acetyl-thiazol-2-ylmethyl)-2H-[1,2,3]triazol-4-yl]-carbamic acid 2-chloro-benzyl ester] was tested. Which EC50 did it give?
Answer: 23 nM

Question: With `CC(=O)c1coc(Cn2ncc(NC(=O)c3ncoc3-c3ccccc3)n2)n1` [Example 91, 5-Phenyl-oxazole-4-carboxylic acid [2-(4-acetyl-oxazol-2-ylmethyl)-2H-[1,2,3]triazol-4-yl]-amide] as the molecule, how does the EC50 read?
Answer: 0.7 nM

Question: How did the EC50 turn out when `COCCc1nc(C(=O)Nc2cnn(Cc3ccc(C(C)=O)o3)n2)c(-c2ccccc2)o1` [Example 93, 2-(2-Methoxy-ethyl)-5-phenyl-oxazole-4-carboxylic acid [2-(5-acetyl-furan-2-ylmethyl)-2H-[1,2,3]triazol-4-yl]-amide] was run?
Answer: 5.2 nM

Question: With `CC(=O)c1ncc(Cn2ncc(NC(=O)c3nc(C)oc3-c3cccc(F)c3)n2)o1` [Example 99, 5-(3-Fluoro-phenyl)-2-methyl-oxazole-4-carboxylic acid [2-(2-acetyl-oxazol-5-ylmethyl)-2H-[1,2,3]triazol-4-yl]-amide] as the molecule, how does the EC50 read?
Answer: 8.1 nM

Question: How did the EC50 turn out when `CC(=O)c1nc(Cn2ncc(NC(=O)OCc3ccccc3Cl)n2)co1` [Example 104, [2-(2-Acetyl-oxazol-4-ylmethyl)-2H-[1,2,3]triazol-4-yl]-carbamic acid 2-chloro-benzyl ester] was run?
Answer: 1.4 nM

Question: How did the EC50 turn out when `CC(=O)c1ccc(Cn2ncc(NC(=O)c3ncoc3-c3cccc(C(F)(F)F)n3)n2)o1` [Example 105, 5-(6-Trifluoromethyl-pyridin-2-yl)-oxazole-4-carboxylic acid [2-(5-acetyl-furan-2-ylmethyl)-2H-[1,2,3]triazol-4-yl]-amide] was run?
Answer: 36 nM
